Experimental data: PubChem BioAssay AID1845198 (Molecular Pharmacology Branch, DTP, NCI, 2023)

Tested on: 425362-245-T-J1 tumor spheroids, viability % test/control
Assay: Anticancer human tumor 425362-245-T-J1 patient-derived melanoma cell line growth inhibition
Conditions: spheroids with HUVEC and MSC; for viability, T/C: stronger effect = lower value
Procedure, shortened: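 Single agents and combinations were tested on spheroids built from tumor cells plus HUVEC and hMSC, at half-log dilutions starting at or near clinical Cmax, else 10 microM; final DMSO 0.25% (v/v).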
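Note: spheroids exposed to agents for 7 days.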

**Q.** With `CC[C@@]1(O)C(=O)OCc2c1cc1n(c2=O)Cc2cc3c(CN(C)C)c(O)ccc3nc2-1` as the compound, how does the viability, T/C (compound 0.00949 µM) read?
**A.** The viability, T/C was 89.3% [middle of 10 runs].

**Q.** And the viability, T/C (compound 0.03 µM)?
**A.** The viability, T/C was 38.3% [middle of 10 runs].

**Q.** And the viability, T/C (compound 0.0949 µM)?
**A.** Its viability, T/C is 6.41% [middle of 10 runs].

**Q.** What about the viability, T/C (compound 0.3 µM) of the same compound?
**A.** The viability, T/C was 1.78% [middle of 10 runs].

**Q.** And the IC50 (compound alone, run of 10/17/2019)?
**A.** Its IC50 is 21.5 nM [middle of 5 runs].

**Q.** And the IC50 (compound alone, run of 10/25/2019)?
**A.** The IC50 was 23.4 nM [middle of 4 runs].

**Q.** How did the IC50 (curve of first compound, second compound 1 µM) turn out when `CC(C)n1c(=O)n(C)c2cnc3cc(F)c(-c4ccc(OCCCN5CCCCC5)nc4)cc3c21` + Cn1nnc2c(C(N)=O)ncn2c1=O was run?
**A.** The IC50 was 124 nM.

**Q.** And the IC50 (curve of first compound, second compound 3.16 µM)?
**A.** Its IC50 is 225 nM.

**Q.** What about the IC50 (curve of first compound, second compound 10 µM) of the same compound?
**A.** Its IC50 is 266 nM.

**Q.** And the IC50 (curve of first compound, second compound 31.6 µM)?
**A.** Its IC50 is 141 nM.

**Q.** What about the IC50 (curve of first compound, second compound 100 µM) of the same compound?
**A.** Its IC50 is less than 31.6 nM.

**Q.** What about the viability, T/C (second compound 1 µM, first compound 0.0316 µM) of the same compound?
**A.** Its viability, T/C is 57.7%.

**Q.** And the viability, T/C (second compound 1 µM, first compound 0.1 µM)?
**A.** The viability, T/C was 55.8%.

**Q.** And the viability, T/C (second compound 1 µM, first compound 0.316 µM)?
**A.** Its viability, T/C is 36.1%.

**Q.** And the viability, T/C (second compound 1 µM, first compound 1 µM)?
**A.** The viability, T/C was 20.8%.

**Q.** And the viability, T/C (second compound 1 µM, first compound 3.16 µM)?
**A.** The viability, T/C was 13.7%.

**Q.** What about the viability, T/C (second compound 1 µM, first compound 10 µM) of the same compound?
**A.** The viability, T/C was 5.19%.

**Q.** And the viability, T/C (second compound 3.16 µM, first compound 0.0316 µM)?
**A.** Its viability, T/C is 77.4%.

**Q.** And the viability, T/C (second compound 3.16 µM, first compound 0.1 µM)?
**A.** Its viability, T/C is 67%.

**Q.** And the viability, T/C (second compound 3.16 µM, first compound 0.316 µM)?
**A.** Its viability, T/C is 43%.

**Q.** And the viability, T/C (second compound 3.16 µM, first compound 1 µM)?
**A.** Its viability, T/C is 20.6%.

**Q.** What about the viability, T/C (second compound 3.16 µM, first compound 3.16 µM) of the same compound?
**A.** The viability, T/C was 19.5%.

**Q.** And the viability, T/C (second compound 3.16 µM, first compound 10 µM)?
**A.** The viability, T/C was 6.63%.

**Q.** What about the viability, T/C (second compound 10 µM, first compound 0.0316 µM) of the same compound?
**A.** The viability, T/C was 74.2%.

**Q.** What about the viability, T/C (second compound 10 µM, first compound 0.1 µM) of the same compound?
**A.** The viability, T/C was 72%.

**Q.** And the viability, T/C (second compound 10 µM, first compound 0.316 µM)?
**A.** Its viability, T/C is 45.1%.

**Q.** And the viability, T/C (second compound 10 µM, first compound 1 µM)?
**A.** Its viability, T/C is 21.4%.

**Q.** And the viability, T/C (second compound 10 µM, first compound 3.16 µM)?
**A.** Its viability, T/C is 18.9%.

**Q.** And the viability, T/C (second compound 10 µM, first compound 10 µM)?
**A.** Its viability, T/C is 5.99%.

**Q.** What about the viability, T/C (second compound 31.6 µM, first compound 0.0316 µM) of the same compound?
**A.** The viability, T/C was 67.8%.

**Q.** What about the viability, T/C (second compound 31.6 µM, first compound 0.1 µM) of the same compound?
**A.** The viability, T/C was 58.5%.

**Q.** And the viability, T/C (second compound 31.6 µM, first compound 0.316 µM)?
**A.** Its viability, T/C is 32.8%.

**Q.** What about the viability, T/C (second compound 31.6 µM, first compound 1 µM) of the same compound?
**A.** Its viability, T/C is 19.8%.

**Q.** And the viability, T/C (second compound 31.6 µM, first compound 3.16 µM)?
**A.** Its viability, T/C is 14.5%.

**Q.** What about the viability, T/C (second compound 31.6 µM, first compound 10 µM) of the same compound?
**A.** The viability, T/C was 6.37%.

**Q.** And the viability, T/C (second compound 100 µM, first compound 0.0316 µM)?
**A.** The viability, T/C was 45.8%.

**Q.** And the viability, T/C (second compound 100 µM, first compound 0.1 µM)?
**A.** Its viability, T/C is 23.7%.

**Q.** What about the viability, T/C (second compound 100 µM, first compound 0.316 µM) of the same compound?
**A.** The viability, T/C was 17.5%.

**Q.** And the viability, T/C (second compound 100 µM, first compound 1 µM)?
**A.** The viability, T/C was 12.1%.

**Q.** And the viability, T/C (second compound 100 µM, first compound 3.16 µM)?
**A.** The viability, T/C was 8.75%.

**Q.** What about the viability, T/C (second compound 100 µM, first compound 10 µM) of the same compound?
**A.** Its viability, T/C is 5.3%.

**Q.** Which results are given for `O=C(c1cc(Cc2n[nH]c(=O)c3ccccc23)ccc1F)N1CCN(C(=O)C2CC2)CC1` + COc1cc2c(cc1O)CCNC21CSC2c3c(OC(C)=O)c(C)c4c(c3C(COC1=O)N1C(O)C3Cc5cc(C)c(OC)c(O)c5C(C21)N3C)OCO4?
**A.** IC50 (curve of first compound, second compound 30 pM): 2110 nM; IC50 (curve of first compound, second compound 94.9 pM): 1420 nM; IC50 (curve of first compound, second compound 0.0003 µM): < 94.9 nM; IC50 (curve of first compound, second compound 0.000949 µM): < 94.9 nM; IC50 (curve of first compound, second compound 0.003 µM): < 94.9 nM; viability, T/C (second compound 30 pM, first compound 0.0949 µM): 87.2%; viability, T/C (second compound 30 pM, first compound 0.3 µM): 93.6%; viability, T/C (second compound 30 pM, first compound 0.949 µM): 67.9%; viability, T/C (second compound 30 pM, first compound 3 µM): 43.4%; viability, T/C (second compound 30 pM, first compound 9.49 µM): 10.1%; viability, T/C (second compound 30 pM, first compound 30 µM): 6.76%; viability, T/C (second compound 94.9 pM, first compound 0.0949 µM): 83.1%; viability, T/C (second compound 94.9 pM, first compound 0.3 µM): 79.2%; viability, T/C (second compound 94.9 pM, first compound 0.949 µM): 56.2%; viability, T/C (second compound 94.9 pM, first compound 3 µM): 36.3%; viability, T/C (second compound 94.9 pM, first compound 9.49 µM): 5.46%; viability, T/C (second compound 94.9 pM, first compound 30 µM): 4.13%; viability, T/C (second compound 0.0003 µM, first compound 0.0949 µM): 32.6%; viability, T/C (second compound 0.0003 µM, first compound 0.3 µM): 35.5%; viability, T/C (second compound 0.0003 µM, first compound 0.949 µM): 22.8%; viability, T/C (second compound 0.0003 µM, first compound 3 µM): 7.06%; viability, T/C (second compound 0.0003 µM, first compound 9.49 µM): 1.54%; viability, T/C (second compound 0.0003 µM, first compound 30 µM): 1.07%; viability, T/C (second compound 0.000949 µM, first compound 0.0949 µM): 0.47%; viability, T/C (second compound 0.000949 µM, first compound 0.3 µM): 0.29%; viability, T/C (second compound 0.000949 µM, first compound 0.949 µM): 0.17%; viability, T/C (second compound 0.000949 µM, first compound 3 µM): 0.09%; viability, T/C (second compound 0.000949 µM, first compound 9.49 µM): 0.04%; viability, T/C (second compound 0.000949 µM, first compound 30 µM): 0.16%; viability, T/C (second compound 0.003 µM, first compound 0.0949 µM): 0.3%; viability, T/C (second compound 0.003 µM, first compound 0.3 µM): 0.32%; viability, T/C (second compound 0.003 µM, first compound 0.949 µM): 0.26%; viability, T/C (second compound 0.003 µM, first compound 3 µM): 0.14%; viability, T/C (second compound 0.003 µM, first compound 9.49 µM): 0.15%; viability, T/C (second compound 0.003 µM, first compound 30 µM): 0.3%
